# Assay results from ChEMBL document CHEMBL5705890, “Antitumor activity of an allosteric inhibitor of centromere-associated protein-E” (Proc Natl Acad Sci U S A, 2010).
# Activity calls are given as the source filed them. No cut-off for these calls is given here.
# Tests used:
# [1] = system: CC(C)Oc1ccc(C(=O)N[C@H](CNC(=O)CN(C)C)Cc2ccc(-c3cn4cccc([C@H](C)O)c4n3)cc2)cc1Cl; conditions: Canis lupus familiaris
# Description: Binding affinity to wild-type dog CENP-E assessed as catalytic constant
# [2] = system: CC(C)Oc1ccc(C(=O)N[C@H](CNC(=O)CN(C)C)Cc2ccc(-c3cn4cccc([C@H](C)O)c4n3)cc2)cc1Cl; conditions: Canis lupus familiaris; remark: listed apart in the source
# Description: Binding affinity to wild-type dog CENP-E assessed as Km in presence of microtubule
# [3] = system: CC(C)Oc1ccc(C(=O)N[C@H](CNC(=O)CN(C)C)Cc2ccc(-c3cn4cccc([C@H](C)O)c4n3)cc2)cc1Cl; conditions: Canis lupus familiaris; remark: listed apart in the source
# Description: Binding affinity to wild-type dog CENP-E assessed as Km in presence of ATP
# [4] = system: CC(C)Oc1ccc(C(=O)N[C@H](CNC(=O)CN(C)C)Cc2ccc(-c3cn4cccc([C@H](C)O)c4n3)cc2)cc1Cl; conditions: Mus musculus
# Description: Binding affinity to wild-type mouse CENP-E assessed as catalytic constant
# [5] = system: CC(C)Oc1ccc(C(=O)N[C@H](CNC(=O)CN(C)C)Cc2ccc(-c3cn4cccc([C@H](C)O)c4n3)cc2)cc1Cl; conditions: Mus musculus; remark: listed apart in the source
# Description: Binding affinity to wild-type mouse CENP-E assessed as Km in presence of microtubule
# [6] = system: CC(C)Oc1ccc(C(=O)N[C@H](CNC(=O)CN(C)C)Cc2ccc(-c3cn4cccc([C@H](C)O)c4n3)cc2)cc1Cl; conditions: Mus musculus; remark: listed apart in the source
# Description: Binding affinity to wild-type mouse CENP-E assessed as Km in presence of ATP
# [7] = target: Centromere-associated protein E (Homo sapiens) (UniProt Q02224); test: Competitive-like binding affinity to C-terminal 6-his-tagged CENP-E (2 to 340 residues)(unknown origin) expressed in Escherichia coli BL21(DE3) in presence of ATP
# [8] = target: Centromere-associated protein E (Homo sapiens) (UniProt Q02224); test: Binding affinity to C-terminal 6-his-tagged CENP-E (2 to 340 residues)(unknown origin) expressed in Escherichia coli BL21(DE3) photo-exposed for 30 mins by LC-MS analysis
# [9] = target: Centromere-associated protein E (Homo sapiens) (UniProt Q02224); test: Uncompetitive-like binding affinity to C-terminal 6-his-tagged CENP-E (2 to 340 residues)(unknown origin) expressed in Escherichia coli BL21(DE3) in presence of ATP
# HCC1954 [10] = test: Induction of morphological change in human HCC1954 cells expressing GFP-histone 2B assessed as bipolar spindle formation of chromosomes at 0.2 ug/ml measured for 5 days on every 15 mins by PI staining based analysis; assay type: functional, cell-based; conditions: dose 0.2 µg/ml, time 5.0 day
# [11] = target: Centromere-associated protein E (Homo sapiens) (UniProt Q02224); test: Inhibition of CENP-E motor domain ATPase in human HCC1954 cells assessed as increase in 4n DNA content at 325 nM measured for 144 hrs by flow cytometry; assay type: cell-based
# [12] = target: Centromere-associated protein E (Homo sapiens) (UniProt Q02224); test: Inhibition of CENP-E motor domain ATPase in human HCC1954 cells assessed as increase in cyclin B level by Western blot analysis; assay type: cell-based
# [13] = target: Centromere-associated protein E (Homo sapiens) (UniProt Q02224); test: Inhibition of CENP-E motor domain ATPase in human HCC1954 cells assessed as increase in Ser10 phosphorylated histone H3 level by Western blot analysis; assay type: cell-based
# HCC1954 [14] = test: Induction of apoptosis in human HCC1954 cells assessed as increase in PARP cleavage measured for 145 hrs by Western blot analysis; assay type: functional, cell-based
# SK-OV-3 = test: Induction of morphological change in human SK-OV-3 cells assessed as increase in mitotic cells with bipolar spindle formation of chromosomes at 50 nM measured for 24 to 32 hrs by microscopic analysis; assay type: functional, cell-based; conditions: time 24-32 hrs
# [15] = target: Centromere-associated protein E (Homo sapiens) (UniProt Q02224); test: Inhibition of CENP-E motor domain ATPase in human HCC1954 cells expressing GFP-histone 2B assessed as increase in mitotic index at 0.2 ug/ml measured for 5 days on every 15 mins by PI staining based analysis; assay type: cell-based; conditions: dose 0.2 µg/ml, time 5.0 day
# [16] = target: Centromere protein E (Canis lupus familiaris) (UniProt A0A8P0P634); test: Binding affinity to wild-type dog CENP-E assessed as ATPase activity
# Homo sapiens [17] = organism: Homo sapiens; test: Binding affinity to human CENP-E T183A/K184T mutant assessed as ATPase activity
# COLO 205 [18] = test: Induction of morphological change in human COLO 205 cells xenografted in mouse assessed as appearance of mitotic figures in tumor at 125 mg/kg measured after 24 hrs of single administration by H and E staining based analysis; assay type: functional, organism-based
# COLO 205 [19] = test: Induction of morphological change in human COLO 205 cells xenografted in mouse assessed as appearance of scattered apoptotic bodies in tumor at 125 mg/kg measured after 24 hrs of single administration by H and E staining based analysis; assay type: functional, organism-based
# COLO 205 [20] = test: Effect on cell cycle distribution in human COLO 205 cells xenografted in mouse assessed as increase in ratio of 4n to 2n nuclei measured after 24 hrs of single administration by flow cytometry; assay type: functional, cell-based; conditions: dose <= 125.0 mg/kg
# COLO 205 [21] = test: Antitumor activity against human COLO 205 cells xenografted in mouse assessed as reduction in tumor volume administered intraperitoneally three doses daily on 2 consecutive weeks; assay type: functional, cell-based; conditions: dose 62.5-125 mg/kg, route ip, time 2.0 weeks
# Homo sapiens [22] = organism: Homo sapiens
# Description: Binding affinity to human CENP-E T183A/K184T mutant assessed as catalytic constant
# Homo sapiens [23] = organism: Homo sapiens; remark: listed apart in the source
# Description: Binding affinity to human CENP-E T183A/K184T mutant assessed as Km in presence of microtubule
# Homo sapiens [24] = organism: Homo sapiens; remark: listed apart in the source
# Description: Binding affinity to human CENP-E T183A/K184T mutant assessed as Km in presence of ATP
# [25] = target: Centromere-associated protein E (Homo sapiens) (UniProt Q02224)
# Description: Binding affinity to C-terminal 6-his-tagged CENP-E (2 to 340 residues)(unknown origin) expressed in Escherichia coli BL21(DE3) assessed as compound dissociation by measuring t1/2
# Chain of Centromere-associated protein E (Homo sapiens) (Q02224 whole entry, the tested form may be a part): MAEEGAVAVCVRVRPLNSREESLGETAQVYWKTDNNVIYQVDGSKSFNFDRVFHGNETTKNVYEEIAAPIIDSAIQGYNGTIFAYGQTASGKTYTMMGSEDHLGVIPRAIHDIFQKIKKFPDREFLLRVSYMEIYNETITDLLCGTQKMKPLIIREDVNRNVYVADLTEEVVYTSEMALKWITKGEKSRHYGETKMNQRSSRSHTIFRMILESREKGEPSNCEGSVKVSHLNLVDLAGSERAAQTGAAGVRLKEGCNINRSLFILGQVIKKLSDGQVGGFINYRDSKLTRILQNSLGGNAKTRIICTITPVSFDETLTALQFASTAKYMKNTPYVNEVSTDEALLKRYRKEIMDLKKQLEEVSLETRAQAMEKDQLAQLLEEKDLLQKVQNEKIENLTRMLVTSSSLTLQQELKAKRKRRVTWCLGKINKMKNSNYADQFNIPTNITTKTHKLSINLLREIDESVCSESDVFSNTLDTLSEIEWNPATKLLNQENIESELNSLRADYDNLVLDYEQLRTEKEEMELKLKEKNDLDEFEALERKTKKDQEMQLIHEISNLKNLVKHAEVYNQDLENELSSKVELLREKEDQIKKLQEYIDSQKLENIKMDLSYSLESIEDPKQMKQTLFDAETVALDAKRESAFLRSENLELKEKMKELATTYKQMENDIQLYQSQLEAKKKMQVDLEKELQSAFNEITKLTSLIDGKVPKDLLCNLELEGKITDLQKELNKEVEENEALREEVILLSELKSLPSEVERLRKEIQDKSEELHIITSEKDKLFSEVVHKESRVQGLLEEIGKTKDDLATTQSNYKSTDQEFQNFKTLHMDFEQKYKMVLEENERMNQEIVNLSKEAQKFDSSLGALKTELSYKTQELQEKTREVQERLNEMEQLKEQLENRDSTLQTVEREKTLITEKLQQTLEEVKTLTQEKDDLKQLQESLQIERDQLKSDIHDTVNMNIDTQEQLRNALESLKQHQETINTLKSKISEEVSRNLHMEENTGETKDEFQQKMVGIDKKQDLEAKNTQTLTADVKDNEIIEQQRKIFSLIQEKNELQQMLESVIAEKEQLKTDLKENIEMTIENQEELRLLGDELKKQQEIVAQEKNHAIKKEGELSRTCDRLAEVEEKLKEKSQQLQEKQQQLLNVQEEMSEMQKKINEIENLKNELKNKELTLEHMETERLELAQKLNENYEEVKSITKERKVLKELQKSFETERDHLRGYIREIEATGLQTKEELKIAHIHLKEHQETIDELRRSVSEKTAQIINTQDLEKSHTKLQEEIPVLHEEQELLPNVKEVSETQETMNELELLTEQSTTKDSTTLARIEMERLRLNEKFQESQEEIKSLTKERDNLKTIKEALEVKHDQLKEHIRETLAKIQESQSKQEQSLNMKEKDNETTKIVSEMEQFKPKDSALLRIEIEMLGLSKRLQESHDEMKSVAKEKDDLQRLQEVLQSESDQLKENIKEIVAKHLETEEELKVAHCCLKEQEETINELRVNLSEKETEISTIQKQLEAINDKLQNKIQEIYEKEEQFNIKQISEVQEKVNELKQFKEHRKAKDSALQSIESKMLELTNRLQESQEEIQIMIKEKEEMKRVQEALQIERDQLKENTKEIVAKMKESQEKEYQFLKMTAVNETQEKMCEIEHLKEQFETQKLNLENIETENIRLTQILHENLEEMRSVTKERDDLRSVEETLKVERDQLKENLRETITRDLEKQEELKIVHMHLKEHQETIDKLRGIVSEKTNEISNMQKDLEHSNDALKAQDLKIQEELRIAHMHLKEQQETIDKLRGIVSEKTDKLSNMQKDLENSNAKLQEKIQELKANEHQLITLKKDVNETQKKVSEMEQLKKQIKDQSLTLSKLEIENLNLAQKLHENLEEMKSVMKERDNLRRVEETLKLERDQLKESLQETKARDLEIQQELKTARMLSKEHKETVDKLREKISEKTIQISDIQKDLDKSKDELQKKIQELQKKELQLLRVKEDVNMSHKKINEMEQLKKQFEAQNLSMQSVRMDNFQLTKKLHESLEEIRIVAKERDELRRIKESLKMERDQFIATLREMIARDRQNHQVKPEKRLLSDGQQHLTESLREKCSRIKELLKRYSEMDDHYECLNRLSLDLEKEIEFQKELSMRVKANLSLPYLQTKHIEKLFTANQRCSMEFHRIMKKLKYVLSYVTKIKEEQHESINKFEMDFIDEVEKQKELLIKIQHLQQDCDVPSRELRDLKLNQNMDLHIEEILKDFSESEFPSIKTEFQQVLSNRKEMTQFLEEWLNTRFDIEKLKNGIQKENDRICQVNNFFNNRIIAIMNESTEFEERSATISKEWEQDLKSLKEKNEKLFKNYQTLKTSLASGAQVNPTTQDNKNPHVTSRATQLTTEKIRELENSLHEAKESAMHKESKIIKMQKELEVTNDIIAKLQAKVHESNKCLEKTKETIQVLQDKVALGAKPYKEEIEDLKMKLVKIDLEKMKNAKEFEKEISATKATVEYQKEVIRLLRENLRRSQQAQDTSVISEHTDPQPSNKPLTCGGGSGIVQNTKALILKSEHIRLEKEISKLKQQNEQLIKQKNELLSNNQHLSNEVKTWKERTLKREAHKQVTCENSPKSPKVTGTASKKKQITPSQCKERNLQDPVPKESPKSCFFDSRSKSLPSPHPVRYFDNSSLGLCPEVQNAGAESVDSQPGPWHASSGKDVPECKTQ
# Chain of Centromere protein E (Canis lupus familiaris) (A0A8P0P634 as listed by the source): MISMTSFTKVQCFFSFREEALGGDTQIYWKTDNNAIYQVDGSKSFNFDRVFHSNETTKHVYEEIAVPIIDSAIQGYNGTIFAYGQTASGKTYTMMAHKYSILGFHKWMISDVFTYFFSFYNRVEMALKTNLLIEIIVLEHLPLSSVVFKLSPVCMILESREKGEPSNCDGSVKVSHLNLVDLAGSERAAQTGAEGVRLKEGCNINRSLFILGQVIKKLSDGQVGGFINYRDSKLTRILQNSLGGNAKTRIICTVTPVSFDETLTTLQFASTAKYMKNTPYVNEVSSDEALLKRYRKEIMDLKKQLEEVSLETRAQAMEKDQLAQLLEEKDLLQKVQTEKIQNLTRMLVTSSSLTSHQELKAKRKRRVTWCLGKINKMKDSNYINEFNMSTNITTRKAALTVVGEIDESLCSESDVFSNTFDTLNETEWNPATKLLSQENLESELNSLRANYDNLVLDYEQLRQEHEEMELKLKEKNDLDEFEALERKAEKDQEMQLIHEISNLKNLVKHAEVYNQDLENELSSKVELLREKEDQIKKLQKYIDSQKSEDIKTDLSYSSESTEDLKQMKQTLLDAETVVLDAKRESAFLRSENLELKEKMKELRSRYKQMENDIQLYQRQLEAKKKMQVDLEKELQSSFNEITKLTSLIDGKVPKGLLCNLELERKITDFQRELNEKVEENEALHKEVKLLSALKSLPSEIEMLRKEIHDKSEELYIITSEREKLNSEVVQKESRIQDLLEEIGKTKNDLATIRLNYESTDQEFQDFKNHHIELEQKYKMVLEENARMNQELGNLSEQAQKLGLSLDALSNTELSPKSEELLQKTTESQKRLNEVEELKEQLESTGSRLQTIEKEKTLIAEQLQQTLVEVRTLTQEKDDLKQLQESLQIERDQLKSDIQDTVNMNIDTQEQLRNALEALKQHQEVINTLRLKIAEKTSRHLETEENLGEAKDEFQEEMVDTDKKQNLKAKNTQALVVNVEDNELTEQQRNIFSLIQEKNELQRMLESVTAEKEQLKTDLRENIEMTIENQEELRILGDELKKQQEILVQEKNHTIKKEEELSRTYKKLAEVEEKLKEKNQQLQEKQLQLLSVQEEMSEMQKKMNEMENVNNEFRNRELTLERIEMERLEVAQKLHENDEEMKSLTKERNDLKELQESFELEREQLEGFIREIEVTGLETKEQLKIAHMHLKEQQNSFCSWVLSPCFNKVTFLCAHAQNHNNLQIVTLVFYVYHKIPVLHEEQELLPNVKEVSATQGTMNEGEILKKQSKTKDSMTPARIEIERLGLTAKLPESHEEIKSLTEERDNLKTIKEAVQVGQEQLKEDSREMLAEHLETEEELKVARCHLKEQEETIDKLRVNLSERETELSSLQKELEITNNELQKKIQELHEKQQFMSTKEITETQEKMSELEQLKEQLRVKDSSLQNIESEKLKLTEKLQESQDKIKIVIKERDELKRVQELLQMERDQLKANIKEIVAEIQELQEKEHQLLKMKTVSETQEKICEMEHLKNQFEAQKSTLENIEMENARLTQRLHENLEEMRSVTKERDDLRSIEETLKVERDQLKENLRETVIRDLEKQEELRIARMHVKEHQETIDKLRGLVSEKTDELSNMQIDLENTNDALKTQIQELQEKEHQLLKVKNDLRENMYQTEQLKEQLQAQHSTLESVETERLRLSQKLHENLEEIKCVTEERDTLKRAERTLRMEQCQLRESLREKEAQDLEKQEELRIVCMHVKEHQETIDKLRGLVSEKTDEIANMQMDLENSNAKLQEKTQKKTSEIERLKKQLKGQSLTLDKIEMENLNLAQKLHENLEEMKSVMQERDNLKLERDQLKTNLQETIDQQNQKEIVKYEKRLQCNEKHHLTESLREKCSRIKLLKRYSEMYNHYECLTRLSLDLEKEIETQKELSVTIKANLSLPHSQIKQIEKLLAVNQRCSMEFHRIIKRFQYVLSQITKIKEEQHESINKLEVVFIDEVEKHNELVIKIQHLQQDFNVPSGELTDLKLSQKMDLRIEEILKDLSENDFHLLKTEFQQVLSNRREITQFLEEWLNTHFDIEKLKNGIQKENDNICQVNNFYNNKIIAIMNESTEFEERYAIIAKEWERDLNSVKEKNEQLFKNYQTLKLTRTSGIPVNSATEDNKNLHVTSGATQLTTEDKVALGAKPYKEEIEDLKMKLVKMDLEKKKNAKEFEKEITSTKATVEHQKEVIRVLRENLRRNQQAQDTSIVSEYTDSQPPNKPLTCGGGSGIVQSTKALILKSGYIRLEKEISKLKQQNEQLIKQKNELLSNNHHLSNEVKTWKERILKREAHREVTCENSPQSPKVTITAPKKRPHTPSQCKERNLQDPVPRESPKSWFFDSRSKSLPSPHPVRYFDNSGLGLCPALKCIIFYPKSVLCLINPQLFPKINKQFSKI
compound,measurement,setting,value
"Centromere protein E (Canis lupus familiaris), A0A8P0P634",kcat,[1],11.1 s⁻¹
same,Km,[2],0.38 µM
same,Km,[3],34 µM
"Centromere-associated protein E (Mus musculus), Q6RT24",kcat,[4],10.1 s⁻¹
same,Km,[5],0.55 µM
same,Km,[6],25 µM
CNC(=O)C(Cc1ccc(C(=O)c2ccccc2)cc1)NC(=O)c1ccc(OC(C)C)c(Cl)c1 (stereo unspecified),alphaKi,[7],8 nM
same,Activity,[8],Active
Cc1cccn2cc(-c3ccc(C[C@@H](CCO)NC(=O)c4ccc(OC(C)C)c(C#N)c4)cc3)nc12,alphaKi,[9],0.25 nM
same,Activity,HCC1954 [10],Active
same,inhibition,[11],Active
same,inhibition,[12],Active
same,inhibition,[13],Active
same,Activity,HCC1954 [14],Active
same,Activity,SK-OV-3,Active
same,inhibition,[15],Active
CC(C)Oc1ccc(C(=O)N[C@H](CNC(=O)CN(C)C)Cc2ccc(-c3cn4cccc([C@H](C)O)c4n3)cc2)cc1Cl,Activity,[16],0.32 s⁻¹
same,Activity,Homo sapiens [17],0.06 s⁻¹
same,Activity,COLO 205 [18],Active
same,Activity,COLO 205 [19],Active
same,Activity,COLO 205 [20],Dose-Dependent Effect
same,Activity,COLO 205 [21],Dose-Dependent Effect
same,kcat,Homo sapiens [22],12.1 s⁻¹
same,Km,Homo sapiens [23],1.81 µM
same,Km,Homo sapiens [24],20 µM
same,T1/2,[25],10.2 h
